# Reference: the METLIN SMRT retention time set (Domingo-Almenara et al. 2019)
# Experiment: gradient 5% acetonitrile 3 min, to 50% in 2 min, to 85% in 15 min, held 3 min, 100 µL/min
# Details: column: Zorbax Extend-C18 2.1 x 50 mm; eluents: water / acetonitrile, 0.1% formic acid
# Outline: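 In both positive and negative ionization mode, a quadrupole time-of-flight mass spectrometer coupled to HPLC analyzed pure standards run in mixtures of ~100 molecules. The Zorbax Extend-C18 column (2.1 × 50 mm, 1.8 μm) was operated at 100 μL/min with water and acetonitrile, each containing 0.1% formic acid. The dead volume was 40 μL and the dwell volume 900 μL. Retention time came from adduct peaks that were computationally picked and individually inspected by hand.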
row,RP-LC retention time [s],Structure (SMILES)
1,582,Fc1ccc(-c2ccc(CNCC3CCNCC3)o2)cc1Cl
2,970,Cn1nc(-c2nnc(-c3ccc(F)cc3)o2)c2c1CCN(S(=O)(=O)Cc1ccccc1Cl)C2
3,937,O=C(Nc1ccc(N2CCN(C3CCCC3)C2=O)nc1)c1ccc(Cl)cc1
4,867,COc1ccccc1-c1nnc(-c2ccc(C)c(S(=O)(=O)N3CCOCC3)c2)o1
5,695,O=C(CSc1nnc2ccccn12)Nc1nc(-c2ccccc2)ns1
6,555,Cc1cc(=O)n(CC(=O)Nc2ccc(N(C)C)cc2)c(N2CCOCC2)n1
7,784,O=C1COc2ccc(S(=O)(=O)N3CCCC3C(=O)NCc3ccccc3Cl)cc2N1 (stereo not drawn)
8,731,CCCN(CCC)S(=O)(=O)c1cccc(-c2cn3cc(C)ccc3n2)c1
9,815,O=C(Cn1nc2c(Oc3cccc(F)c3)nccn2c1=O)Nc1ccccc1F
10,880,COc1ccccc1CNC(=O)c1ccc2c(c1)N(C)C(=O)C1CCCCN21 (stereo not drawn)
11,926,Clc1ccc(-c2nc3ccc(Cl)cn3c2Nc2ccc3c(c2)OCO3)cc1
12,846,O=C(CN1CCN(Cc2ccc(F)cc2)C1=O)NCc1cccc(Cl)c1
13,964,COc1ccccc1-c1noc(C2CCCN2C(=O)Nc2ccc(Br)cc2)n1 (stereo not drawn)
14,981,CCOc1ccc(C2c3[nH]c4ccccc4c3CCN2C(=O)COC)cc1 (stereo not drawn)
15,989,CCc1c(C)nc2nc(-c3ccccc3)nn2c1Nc1cccc(OC)c1
16,1050,COc1ccc(C)cc1NC(=O)Cn1c(=O)cc(-c2nc(C3CC3)no2)c2ccccc21
17,1110,O=C(NCc1ccco1)c1scc(-c2ccc(F)cc2)c1-n1cccc1
18,689,c1ccc(-c2nc(-c3cnccn3)no2)c(OC2CCN(Cc3ccc4c(c3)CCO4)C2)c1 (stereo not drawn)

row,RP-LC retention time [s],Structure (SMILES)
1,976,CCN1C(=O)COc2ccc(-c3csc(NC(=O)c4ccc(OC)cc4)n3)cc21
2,857,CC(=O)Nc1ccc(S(=O)(=O)N2CCn3cccc3C2c2ccc(F)c(F)c2)cc1 (stereo not drawn)
3,824,O=C(CN1CCN(Cc2ccccc2)C1=O)NCc1ccccc1Br
4,695,COc1ccc(-c2cc3n(n2)CCCN(C(=O)c2cnccn2)C3)cc1
5,906,O=C(Cn1nc2c3cc(-c4ccc(Cl)cc4)nn3ccn2c1=O)NC1CCCCC1
6,630,Cc1ccc2c(C(=O)Nc3ccc(N4CCOCC4)cc3)cc(NC(=O)C3CCC3)cc2n1
7,1170,CCOc1ccc(-c2nc(C3CC(=O)N(c4ccc(F)c(Cl)c4)C3)no2)cc1 (stereo not drawn)
8,682,O=C(CN1C(=O)COc2ccc(C(=O)N3CCCC3)cc21)NCc1ccc2c(c1)OCO2
9,850,O=C(Cc1ccc(Cl)cc1)Nc1cc(-c2ccccn2)no1
10,610,Cc1cc(N2CCN(C)CC2)nc2ccc(NC(=O)Nc3ccc(Cl)cc3)cc12
11,930,CCN(CC)C(=O)Cn1nc2c(SCc3ccc(Cl)cc3)nccn2c1=O
12,731,Cc1nc(C)c(C(=O)Nc2cccc(Cl)c2C)o1
13,1170,COc1ccc(-c2noc(-c3nc(Cc4cccc(F)c4)no3)n2)cc1
14,1040,CCn1cc(C2=CCN(S(=O)(=O)c3cccc(C)c3)CC2)c2cccnc21
15,697,O=C(O)c1ccc(Nc2c(-c3ccccc3)nc3cnccn23)cc1
16,863,O=C(Nc1cccc(Cl)c1)c1cn(CC(O)c2ccc3c(c2)OCO3)nn1 (stereo not drawn)
17,697,C[C@H](Nc1ncnc2nc[nH]c12)c1cc2cccc(Cl)c2c(=O)n1-c1ccccc1
18,1040,Cc1sc2ncnc(SCC(=O)c3ccc4c(c3)OCCO4)c2c1C

# The remaining lines, values behind:
row,Structure (SMILES),RP-LC retention time [s]
1,O=C(c1cc(S(=O)(=O)N2CCCC(C(=O)N3CCOCC3)C2)c[nH]1)N1CCCC1 (stereo not drawn),638
2,CCN1CCCn2cc(S(=O)(=O)N3CCN(c4ccccc4OC)CC3)cc2C1=O,784
3,Cc1ccc(CNC(=O)C2(C)CCN(C(=O)c3ccccc3C(F)(F)F)CC2)cc1,894
4,O=C(c1c[nH]c2ncccc12)N1CCCCCC1,646
5,Cc1noc2ncnc(N3CCC(C(=O)NCCN(C)C)CC3)c12,567
6,OCCNCCN1CCN(CCCN2c3ccccc3Sc3ccc(C(F)(F)F)cc32)CC1,641
7,Cc1nc(NC(=O)Cn2nc(-n3cccn3)ccc2=O)sc1C(=O)N(C)C,585
8,Cc1cccc2sc(N(CCCN(C)C)C(=O)c3ccccc3Br)nc12,629
9,O=C(NCCc1ccccn1)C1(CCO)CCN(c2ncccn2)C1 (stereo not drawn),526
10,CCCNC(=O)c1cc2sc(C)c(CN3CCCCC3)c2[nH]1,629
11,CCOc1ccc(-c2csc(Cc3nc(-c4ccc(F)cc4)no3)n2)cc1,1250
12,CCOC(=O)c1c(C)c(CCC(=O)N2CCN(C(=O)c3ccco3)CC2)n(CC)c1C,778
13,Cc1noc(C)c1CC(=O)N1CC(F)(F)C[C@H]1COc1ccc2c(c1)CCC2,1060
14,Cc1nn(C)c(C)c1S(=O)(=O)N1CCc2c(c(-c3nnc(-c4ccc(F)cc4)o3)nn2C)C1,805
15,O=C(NCCn1ncccc1=O)NCc1ccccc1,578
16,O=C(NCc1ccc(N2CCOCC2)cc1)c1cn2c(n1)CSCC2,604
17,CCC(=O)N1CCc2cc(N3CC(C(=O)N4CCC5(CC4)OCCO5)CC3=O)ccc21 (stereo not drawn),654
18,O=C(Cn1nc2n(c1=O)CCCCC2)NCc1ccccc1Br,705
19,Cc1ccccc1NS(=O)(=O)c1cc2[nH]c(=O)[nH]c2cc1C,679
20,O=C(c1ccc(-c2c(-c3ccc(F)cc3)ncn2C2CCCC2)o1)N1CCN(c2ncccn2)CC1,727
21,Cc1nc(C)c(C(=O)N2CCc3cc(-c4csc(C5CC5)n4)ccc32)s1,1020
22,O=C1CCCN1CCCn1c(SCc2c(F)cccc2F)nc2ccccc2c1=O,895
23,Cc1c(C(=O)N2CCN(C)CC2)cnn1-c1cc(-c2nc(C3CC3)no2)ccn1,630
24,CCNc1cc(N2CCCC(CCC(=O)NCCN3CCCCC3)C2)ncn1 (stereo not drawn),551
25,COc1ccc(S(=O)(=O)N2CCCC(C(=O)NCCO)C2)cc1OC (stereo not drawn),597
26,CCN(CC)CCNc1ncnc2c1cnn2-c1ccc(C)cc1,642

row,Structure (SMILES),RP-LC retention time [s]
1,CCn1c(-c2ccccc2)cc(C(=O)N(C)C)c1C,697
2,COc1cccc(Cn2nc3ccc(S(=O)(=O)N4CCOCC4)cn3c2=O)c1,783
3,Cc1ccc(NC(=O)N2C[C@@H](F)C[C@H]2C(=O)N2CCCCC2)c(Cl)c1,779
4,CC(C)C(=O)N1C[C@@H](F)C[C@H]1C(=O)N1CCc2ccccc2C1,683
5,Cc1nc2cc(-c3noc(-c4ccccc4Br)n3)ccc2o1,1140
6,COc1ccc(CN2C[C@@H]3C(=O)N(CCCN4CCCC4=O)C(=O)[C@@H]3C2)cc1OC,575
7,CCOc1cc(=O)n2c(c1C(=O)Nc1ccc(OC)cc1OC)CCCC2,706
8,CCCN1CCN(CCCNC(=O)C2CCN(Cc3cn(C)c4ccc(Cl)cc34)CC2)CC1,541
9,Cc1ccc(F)cc1S(=O)(=O)N1CCn2c(nn(CC3CC3)c2=O)C1,797
10,CSc1ccc(NC(=O)N2CCN(C3=CC4=NCC(C)N4C=N3)CC2)cc1 (stereo not drawn),638
11,COc1ccc(CN(Cc2ccccc2)Cc2cc(=O)n3ccc(C)cc3n2)cc1OC,662
12,CC1=C(c2ccc(F)cc2)S(=O)(=O)N=C1N1CCCN(C(=O)c2cccs2)CC1,806
13,O=C(C1CCCN(c2cnc3nccnc3c2)C1)N1CCCCCC1 (stereo not drawn),692
14,COc1cc(N2CCC(N3CCN(C)CC3)CC2)ccc1Nc1ncc(Cl)c(Nc2ccccc2S(=O)(=O)C(C)C)n1,694
15,COc1ccccc1NC(=O)N1C[C@@H](F)C[C@H]1C(=O)N1CCCCC1,677
16,CC1=C(C(=O)Nc2ccccc2F)C2(CCN(C(C)C)CC2)OC1=O,613
17,CC1CCC(NC(=O)c2nnc(-c3ccc(S(=O)(=O)N4CCCC4)cc3)o2)CC1 (stereo not drawn),1020
18,Cn1nc(-c2nnc(-c3ccccc3F)o2)c2c1CCN(S(=O)(=O)c1ccc(F)cc1F)C2,922
19,O=C1CCCc2cc(S(=O)(=O)N3CCC(C(=O)NC4CCCCCC4)CC3)ccc2N1,769
20,Cn1ncc2c3ccccc3n(CCCC(=O)N3CCN(c4ccccn4)CC3)c2c1=O,607
21,CCc1ccc(NC(=O)C2CCN(S(=O)(=O)c3cc(C(=O)N4CCCC4)cs3)CC2)cc1,922
22,CCn1ccc(C(=O)N2CCC(c3noc(-c4cnccn4)n3)C2)n1 (stereo not drawn),634
23,CCc1noc(-c2ccnc(-n3ncc(C(=O)NC4CC4)c3C)c2)n1,815
24,CC1=C(c2ccc(C)cc2)S(=O)(=O)N=C1N1CCCN(C(=O)NCC(C)C)CC1,822
25,Cc1ccc(C2NC(=O)N(C)C3=C2C(=O)N(C(CC(C)C)C(=O)N2CCOCC2)C3)c(C)c1 (stereo not drawn),708
26,C#CC(C)(CC)OCC(O)CN1C(C)(C)CC(O)CC1(C)C (stereo not drawn),568
